Data as given in US20250213526A1, “TRIPLE UPTAKE INHIBITOR FOR THE TREATMENT OF ATYPICAL DEPRESSION” (priority 2022, published 2025).
Entries after “also recorded” stand apart in the source; their conditions may differ.

Legend:
Assay type in all cases: in vivo, rat
Male Long Evans Rats = experiment: 5-choice serial reaction time task (5-CSRTT)
Excerpt: The 5-choice serial reaction time task (5-CSRTT) is widely used to measure attentional performance and response control (motor impulsivity) in rodents. A strength of the test is its adaptability to task modification. Variations to stimulus duration and frequency of stimulus presentation, amongst others, have become commonly used to challenge performance in the context of attention and response control. The primary objective of these studies was to examine the effect of Compound 1 on attentional performance and on aspects of response control, defined as premature responses (PREM) and perseverative responses (PSV), measures of impulsive action, and compulsive action respectively. Two experimental manipulations were undertaken to differentially challenge performance. Specifically, (1) test Compound 1 (1, 3, 10 mg/kg) under standard test conditions of 0.75 s SD, 5 s ITI, 100 trials, and (2) test Compound 1 (1, 3 mg/kg) against a long ITI challenge. The long ITI challenge is designed to elevate PREM and PSV responses and so provide a means to examine the effect of both test articles on measures of impulsive and compulsive action.
• Dosage form: 0.3% Tween80 in 0.9% Saline • Pretreatment time: 180 minutes
• Dosage form: Compound 1 was suspended in 0.3% Tween80 in 0.9% Saline and sonicated. Drug was administered at a volume of 5 mL/kg, oral (PO) route. • Pretreatment time: 180 minutes • Doses tested: Phase 1: 1, 3, 10 mg/kg; Phase 2: 1, 3 mg/kg
Housing and Management of Test System: Following a one-week period of familiarization to the test facility, animals were placed on a restricted diet regimen, in which they were fed approximately 20 g of standard laboratory chow once per day (corresponding to ˜80% of normal food consumption) following the completion of study procedures (between 16:00 h and 18:00 h). Overall food intakes were therefore based on food earned during 5-choice training/testing and chow at the end of each study day. On days where no training/testing occurred, the daily allotted lab chow was increased to approximately 24 g per animal. Water was available ad-libitum except during 5-choice training/testing sessions. Animals were maintained on a 12 h/12 h light/dark cycle with all testing conducted during the animals' light cycle.
5-choice serial reaction time task: 5-choice operant chambers were housed in sound-insulated and ventilated enclosures. Chambers consisted of an aluminum enclosure (25×30 cm), containing a reward magazine attached to a food pellet dispenser and house light on one wall, and on the opposite wall an array of 5 square niches (2.5×2.5×2.5 cm) arranged on a curved panel and raised 2.5 cm from the grid floor. An LED was positioned at the rear of each niche. Each niche, and the reward magazine, also contained a photocell to detect head entry. Test chambers were controlled by Med PC software.
The 5-CSRTT schedule began with the illumination of the house light and delivery of a food pellet. A nose-poke into the magazine tray initiated the first trial which consisted of an inter-trial interval (ITI, 5 s) followed by the random illumination of one of the 5 lights for a fixed interval (stimulus duration, SD). If a nose-poke was registered in the illuminated niche before the end of either the SD, or a fixed interval after this period (limited hold, LH) a further pellet was dispensed and a Correct Trial registered. […] PSV responses were not punished by a TO.
Each session ran for either 100 trials or 60 min, depending on which session endpoint was achieved first. Animals were trained via a series of steps to final test conditions of 0.75 s SD, 5 s ITI, 5 s limited hold. Target performance was stable performance around a threshold of 80% correct ([correct/(correct+incorrect)]*100) and <20% omissions for at least a two week period. At this point drug testing began according to a repeated measures design with animals receiving treatment over repeated test sessions. […]

[1] = system: adult male Sprague Dawley rats; experiment: Fixed ratio 1 (FR1) schedule probe
Excerpt: A fixed ratio 1 (FR1) schedule was used, and this task is the most food dense and appetite dependent operant schedule, with high sensitivity to appetite-related manipulations such as pre-feeding and appetite suppressant drugs.
Methods. The same adult male Sprague Dawley rats (n=31) as in Example 5 were used in this study. Animals trained once daily on the PROG/Chow feeding choice procedure from Monday through Thursday. On Friday, the testing day, the animals were switched from the PROG/Chow feeding choice procedure to FR1 with no prior training. Each operant session lasted 30 minutes and lever presses were recorded at the end of the run. Drug treatment and the FR1 probe occurred on the Friday after two weeks of washout period from Example 5. A dose of 20.0 mg/kg of Compound 1 or vehicle was administered via oral gavage on the testing day. Only the highest dose was tested in this study because, in Example 5, it produced the most robust decrease in lever pressing and chow intake compared to VEH. Treatment conditions were assigned randomly. Treatment group difference was assessed by unpaired t-test. A p value of <0.05 was considered statistically significant.

[2] = system: adult male Sprague Dawley rats; experiment: Progressive ratio (PROG)/Chow feeding choice task; conditions: for standard chow intake vs VEH / lever pressing vs VEH: 30-minute session; for chow intake vs VEH, high responders / lever pressing vs VEH, high responders: high responder group (n=15); for lever presses, low responders (chow-intake analysis, FIG. 15) / lever pressing vs VEH, low responders: low responder group (n=16); for lever presses, low responders (chow-intake analysis, FIG. 15): Dunnett's test
Method: The PROG/Chow feeding choice procedure was used as a test designed to evaluate the effort a rat is willing to make to eat a palatable food by pressing a lever instead of eating freely available standard food.
Methods. Thirty-one (n=31) adult male Sprague Dawley rats were used in this study. The animals were restricted to 85% of their free-feeding weight, with modest growth allowed throughout the study period. Animals were assessed using operant conditioning chambers. Animals were first introduced to the high carbohydrate pellets (“palatable food”) and trained to lever press using a continuous reinforcement schedule with a fixed ration of one (FR1=one active lever press trigger the delivery of the palatable food) for one week. After this, the rats were trained on the progressive ratio (progressively more lever pressures were needed to trigger the delivery of the palatable food) schedule alone for nine weeks at which point chow (“standard food”) was introduced (=PROG/Chow feeding choice procedure), and animals trained for another 5 weeks to acquire a steady baseline. Each session lasted 30 minutes and rats ran in the operant chambers once a day, five days a week (Monday-Friday). Vehicle (VEH), or Compound 1 doses of 5.0, 10.0, and 20.0 mg/kg were administered via oral gavage once a week (Thursday or Friday) after the training period. Treatment conditions were selected randomly. Lever presses and chow consumption (including spillage) were recorded after each operant session.
Statistical analyses. Repeated measures analysis of variance test (ANOVA) and planned comparisons were used to assess the data overall. Factorial ANOVA was used to assess group x treatment interaction. If significant interactions were found, planned comparisons (using the overall error term) were used to assess the groups individually. Dunnett's tests were also used to analyze differences between drug treatments and VEH. A p value of <0.05 was considered statistically significant for all analyses.

male Sprague-Dawley rats = experiment: Binge-like eating of chocolate; conditions: for chocolate intake vs VEH: 4 h pre-treatment, 1-hr session
Excerpt: Methods. A new group of male Sprague-Dawley rats (n=8; initial weight 300-325 g) was used for the binge-like eating experiment. They were pair-housed under the same conditions described above, however, they were not food restricted, and in the home cage were allowed ad libitum access to food (laboratory chow) and water. Acquisition of the binge-like eating took place over the course of 12 exposure sessions. A 3-day, 1-hr habituation exposure to an empty feeding cage with a ceramic dish took place before chocolate exposure. With chocolate exposure, rats received chocolate (0.3 g fat, 0.57 g carbohydrate, and 0.073 g protein with a total of 5.34 kcal/g) on days 1, 2, 4, 6, 7, 9, 12, 14, 15, 18, 23, and 28. On exposure days, rats were placed in an empty feeding cage with a ceramic dish containing ground chocolate for 1 hr. Weight of chocolate was taken before and after each session to determine intake.
Drug Administration. Upon completion of the 12 acquisition sessions of binge-like eating rats continued to be exposed to chocolate sessions twice a week for 1-hr in empty feeding cages with a ceramic dish containing chocolate. One session was for maintenance of the binge-like behavior, and then the second was for drug treatment. These sessions took place randomly throughout the week with the maintenance session always occurring prior to the drug treatment session. Compound 1 was dissolved in 0.3% Tween 80 in dH2O. Vehicle (VEH), or doses of 5.0, 10.0, and 20.0 mg/kg were administered via oral gavage once a week for testing. A pre-treatment lead time of four hours was used. A within-subjects design was used in this study, with each rat receiving one treatment per week for a total of four weeks. Treatment conditions were selected randomly.
Data Analysis. Repeated measures ANOVA and planned comparisons were used to assess the effect of Compound 1 on binge-like eating of chocolate.

[3] = system: adult male Sprague-Dawley rats; experiment: Sleep/wake parameters, repeated measures; conditions: first 6 hours post-dosing, n=8
Method: Using a counter-balanced, repeated measures design, three doses of Compound 1 (1-10 mg/kg, p.o.) were tested for their effects on sleep/wake parameters in adult male Sprague-Dawley rats (n=8). The results were compared with the effects on caffeine (10 mg/kg).
Methods. Eight (n=8) adult male Sprague Dawley rats were used in this study. Each rat received Compound 1 at 3 doses (1, 3 and 10 mg/kg), vehicle (purified H2O-negative control) and caffeine (10 mg/kg—positive control). […] Sleep parameters (non-rapid eye movement sleep, NR; rapid eye movement sleep, REM) were recorded and the first 6 hours post-dosing records were analyzed.

[4] = standard conditions 0.75 s SD, 5 s ITI, 100 trials, 1, 3, 10 mg/kg PO, P<0.01
[5] = standard conditions, 1, 3, 10 mg/kg PO
[6] = 10.0 mg/kg oral gavage, n=31, p<0.001
[7] = 20.0 mg/kg oral gavage, n=31, p<0.001

## CCC[C@]1(C(=O)c2ccc(Cl)c(Cl)c2)CCNC1 [Compound 1, (3,4-dichloro-phenyl)-((S)-3-propyl-pyrrolidin-3-yl)-methanone]
Male Long Evans Rats; 10 s ITI schedule, 1 and 3 mg/kg PO, LI and HI subgroups, P<0.01
  PREM responses in low/high impulsive subgroups: main effects of treatment and subgroup x treatment interactions
Male Long Evans Rats; 10 s ITI schedule, 1 and 3 mg/kg PO, LI and HI subgroups, treatment P=0.02, interaction P<0.01
  PSV responses in low/high impulsive subgroups: main effects of treatment and subgroup x treatment interactions
Male Long Evans Rats; 10 s ITI, 0.3 s SD schedule, 1 and 3 mg/kg PO, all N=21 rats, F2,40≤2.5, NS
  any task measure (accuracy % correct, % hit, PREM/PSV responses): no main effects of treatment on any measure
Male Long Evans Rats; FIGS. 10A and 10B
  impulsive behaviors in rats: reduces impulsive behaviors
Male Long Evans Rats; [4]
  perseverative (PSV) responses relative to vehicle: dose-related decrease; also recorded: dose-dependently reduced
  premature (PREM) responses relative to vehicle: dose-related decrease; also recorded: dose-dependently reduced
Male Long Evans Rats; standard conditions, 10 mg/kg PO
  trial number: decreased
Male Long Evans Rats; [5]
  accuracy: no main effects of treatment; also recorded: no adverse effects
  speed of responding: no adverse effects
[1]; 20.0 mg/kg oral gavage
  rats that pressed the lever but refrained from eating some of the pellets: 6 of the 16
[1]; 20.0 mg/kg oral gavage, 30-minute session, unpaired t-test t=9.74, p<0.001
  lever pressing vs VEH in FR1 probe: significant decrease in lever pressing
[1]; 20.0 mg/kg, after the 30-minute operant session
  uneaten pellets left in the food dishes of these animals: 5-10 pellets
[2]; 5.0 mg/kg oral gavage, n=31, p<0.001
  standard chow intake vs VEH: significant decreases
[2]; 5.0 mg/kg oral gavage, n=31, p=n.s.
  lever pressing vs VEH: No significant difference
[2]; [6]
  lever pressing vs VEH: significant decreases in lever pressing
  standard chow intake vs VEH: significant decreases
[2]; [7]
  lever pressing vs VEH: significant decreases in lever pressing
  standard chow intake vs VEH: significant decreases
[2]; 5.0-20.0 mg/kg oral gavage
  overall conclusion on appetite: appetite suppressant effects
[2]; 5.0 mg/kg, p<0.010
  chow intake vs VEH, high responders: significant decreases in chow intake
[2]; 5.0 mg/kg, p=n.s.
  lever pressing vs VEH, high responders: no significant difference
  lever pressing vs VEH, low responders: no significant differences
[2]; 10.0 mg/kg, p<0.001
  chow intake vs VEH, high responders: significant decreases in chow intake
  lever pressing vs VEH, high responders: significant decreases in lever pressing
  lever presses, low responders (chow-intake analysis, FIG. 15): significant decreases in lever presses
[2]; 20.0 mg/kg, p<0.001
  chow intake vs VEH, high responders: significant decreases in chow intake
  lever pressing vs VEH, high responders: significant decreases in lever pressing
  lever presses, low responders (chow-intake analysis, FIG. 15): significant decreases in lever presses
[2]; 5.0 mg/kg, p<0.001
  lever presses, low responders (chow-intake analysis, FIG. 15): significant decreases in lever presses
[2]; 10.0 mg/kg, p=n.s.
  lever pressing vs VEH, low responders: no significant differences
[2]; 20.0 mg/kg, p=n.s.
  lever pressing vs VEH, low responders: no significant differences
Male Sprague-Dawley rats; 5.0 mg/kg oral gavage, n=8, n.s.
  chocolate intake vs VEH: did not significantly suppress chocolate intake
Male Sprague-Dawley rats; 10.0 mg/kg oral gavage, n=8, p<0.001
  chocolate intake vs VEH: significant reductions in chocolate intake
Male Sprague-Dawley rats; 20.0 mg/kg oral gavage, n=8, p<0.001
  chocolate intake vs VEH: significant reductions in chocolate intake
Male Sprague-Dawley rats; rat, in vivo
  binge eating in animal model (FIGS. 8 and 9): effective in controlling binge eating
[3]; 3 mg/kg p.o.
  REM sleep: reduced REM sleep, but to a lesser extent
  wake: significantly increased wake
[3]; 10 mg/kg p.o.
  REM sleep: complete suppression of REM sleep
  wake: wake-promoting effects
